Residues, ends and D or L forms follow the SMILES beside them. *: point of attachment. Biotin = O=C1N[C@H]2[C@H](CS[C@H]2CCCCC(=O)*)N1
Tests used:
[1] = Peptide detection in brain cortex after photothrombotic ischemia; type: in vivo; conditions: 3 nmol/g i.v. 1 h after damage, male and female mice sacrificed 5 h post-stroke; Fluorescein Avidin D (Fig 5C)
Description: Vehicle (saline), Bio-TMyc or Bio-TT1Ct (3 nmol/g) were retro-orbitally injected in mice one hour after induction of photothrombotic damage or, alternatively, undamaged animals. In the first case, animals were sacrificed 5 h after damage induction while, the second group was sacrificed 30 min after peptide administration. The details of brain fixation and cryoprotection for peptide visualization and/or immunohistochemistry are provided in the Supplementary material. […]
Finally, the sa mple s were mounted in Prolong Diamond. The images were acquired using an inverted Zeiss LSM 710 laser confocal microscope (Jena, Germany) with a 40x or 63x Plan-Apochromatic oil immersion objective. Images corre spond to single se ctions and were normalized for eac h colour se para tely and process ed for presenta tion with ImageJ (NIH Image) and Fiji.
Peptide visualization and immunohistochemis tr y in brain cortex
For peptide visua liz ation in undamaged or damaged brains, animals were deeply anes thetized and intra cardially perfus ed with cold PBS and 4% paraformalde hyde in PBS. Brains were post-fixed in the sa m e fixative at 4°C for 24 h and cryoprote cted in 30% suc ros e for 48 h at 4°C. […]

GFAP+/C3+ cells = assay: Immunohistochemistry of reactive astrocytes in ischemic brain; type: in vivo, mice; conditions: 3 nmol/g 1 h after damage; early after injury (5 h); versus TMyc
Description: (§1) The brains of animals injected one hour af ter the initiation of the photothrombotic damage with vehicle (saline), TMyc or TT1Ct (3 nmol/g) were process ed and cryoprote cted as before indicated. The duration of damage before sa cri f i ce was 5 h (male and female) or 24 h (male).
(§2) Coronal froze n se ctions were incubated with blocking solution as des cribe d in flota tion for 1 h at room temperature and then overnight with prima ry antibodies diluted in 4% goat se rum and 0.3% Triton X-100 in PBS at 4°C. After was hing, slides were incubated 1 h with Alexa Fluor 546- conjugated goat anti-rabbit or AlexaFluor 647- conjugated goat anti-mouse se condary antibodies to visua liz e the prima ry antibodies and DAPI (5 μg/ml). Only for Iba1 sta ining, blocking solution was 2.5% BS A, 5% goat se rum, 0.5% Triton X-100 in PBS, and se ctions were incubated with prima ry antibody 24 h at RT follow ed by was hing and Alexa Fluor 546-conjugated goat anti-rabbit and DAPI incubation for 1 h. Sections were then was hed in PBS, mounted on slides , dried for 15 min at 37 °C on a hot plate, or air dried overnight and then cover slipped with DPX or Prolong Diamond. Ce ll Obs erve d images were obtained with Zeiss microscope Observe r.Z1 using a 10x Plan-Apochromatic objective. […]

CD68+ cells = assay: Immunohistochemistry of macrophages/activated microglia in ischemic brain; type: in vivo; conditions: male mice, 3 nmol/g, 24 h of insult; versus TMyc
Description: as §1, §2

[2] = Beam walking test after photothrombotic ischemia; type: in vivo, mice; conditions: male mice
[3] = Immunoglobulin infiltration in ischemic brain; type: in vivo; conditions: male mice, 24 h after insult; versus control peptide (Fig S7)
Description: as §1, §2

Row | Molecule | Time of peptide detection in brain cortex after administration [1] | Effect on GFAP+/C3+ cells at the infarct boundary (GFAP+/C3+ cells) | Effect on CD68+ cells in the infarct and surrounding tissues (CD68+ cells) | Recovery in beam walking test ([2]; TT1Ct versus TMyc slips) [%] | Number of slips ([2]; contralateral hind paw slips, beam walking 24 h after insult, 3 nmol/g i.v. 1 h after damage, mean ± SEM, n = 10-12) | Immunoglobulin infiltration [3]
1 | CC[C@H](C)[C@H](NC(=O)[C@H](CC(C)C)NC(=O)[C@H](CCCCN)NC(=O)[C@H](CCC(N)=O)NC(=O)[C@H](CCC(=O)O)NC(=O)[C@H](CCC(=O)O)NC(=O)[C@H](C)NC(=O)[C@H](CCCNC(=N)N)NC(=O)[C@H](CCCNC(=N)N)NC(=O)[C@H](CCCNC(=N)N)NC(=O)[C@H](CCC(N)=O)NC(=O)[C@H](CCCNC(=N)N)NC(=O)[C@H](CCCNC(=N)N)NC(=O)[C@H](CCCCN)NC(=O)[C@H](CCCCN)NC(=O)[C@H](CCCNC(=N)N)NC(=O)CNC(=O)[C@H](Cc1ccc(O)cc1)NC(=O)CCCC[C@@H]1SC[C@@H]2NC(=O)N[C@@H]21)C(=O)N[C@@H](CO)C(=O)N[C@@H](CCC(=O)O)C(=O)N[C@@H](CCC(=O)O)C(=O)N[C@@H](CC(=O)O)C(=O)N[C@@H](CC(C)C)C(=O)N[C@@H](CC(C)C)C(=O)N[C@@H](CCCNC(=N)N)C(N)=O [Bio-TMyc, reference compound] (Biotin-YGRKKRRQRRRAEEQKLISEEDLLR-NH2) | at least 4 h |  |  |  |  | 
2 | Ac-YGRKKRRQRRRPPFVLFHKIPLDG-NH2 [TT1Ct] |  | strong decrease | greatly decreased | 49 | 5 ± 1 | reduced immunoglobulin infiltration
